The values below are quoted from earlier work in EP4763224A1, “ANTICANCER AGENT CONTAINING NKT CELL LIGAND-CONTAINING LIPOSOME COMPOSITION” (RIKEN, priority 2023, dated 2025).

This data set relates to NKT cells. Particulars: for activity relative to α-galactosylceramide: Patent Documents 1 to 5 and Non-Patent Document 10.

Consider `CCCCCCCCCCCCCCCCCCCCCCCCCC(=O)N[C@@H](CO[C@H]1O[C@H](COC)[C@H](O)[C@H](O)[C@H]1O)[C@H](O)[C@H](O)CCCCCCCCCCCCCC` [RCAI-61], for which the “activity relative to α-galactosylceramide” value is “several tens times higher”.

For the compound `CCCCCCCCCCCCCCCCCCCCCCCCCC(=O)N[C@@H](CO[C@H]1O[C@H](COC(=O)NO)[C@H](O)[C@H](O)[C@H]1O)[C@H](O)[C@H](O)CCCCCCCCCCCCCC` [RCAI-137], the “activity relative to α-galactosylceramide” value is listed as “several tens times higher”.

As to `CCCCCCCCCCCCCCCCCCCCCCCCCC(=O)N[C@@H](CO[C@H]1O[C@H](COC(=O)NC)[C@H](O)[C@H](O)[C@H]1O)[C@H](O)[C@H](O)CCCCCCCCCCCCCC` [RK-163], the “activity relative to α-galactosylceramide” value is “several tens times higher”.

For `CCCCCCCCCCCCCCCCCCCCCCCCCC(=O)N[C@@H](CO[C@H]1O[C@H](CO)[C@H](O)[C@H](O)[C@H]1O)[C@H](O)[C@H](O)CCCCCCCCCCCCCC` [α-Galactosylceramide, reference compound], for the setting “Non-Patent Document 9”, the “artificial activation of NKT cells” value was “strongly induce artificial activation of NKT cells”.
